According to patent US9302999B2, “Substituted triazoles as herbicides” (E. I. DU PONT DE NEMOURS AND COMPANY, priority 2012, dated 2016):

Experiments:
Format in all cases: in vivo
[1] = system: japonica rice (ORYSP, Oryza sativa); experiment: Test G paddy, alone and in combination: japonica rice; conditions: evaluated after 14 days
Experimental: (§1) Seeds of smallflower umbrella sedge (CYPDI, Cyperus difformis) and ducksalad (HETLI, Heteranthera limosa) were sown on the soil surface in two separate quadrants of 11 cm tubs filled with steam pasteurized Tama soil. Simultaneously, plantings of barnyardgrass (ECHCG, Echinochloa crus-galli) and japonica rice (ORYSP, Oryza sativa) were established in separate “plug” flats. Plants were grown in a greenhouse using supplemental lighting to maintain a photoperiod of approximately 16 h; daytime and nighttime temperatures were approximately 27-30° C. and 19-22° C., respectively. After 8 days, barnyardgrass plants were transplanted to one of the remaining quadrants of the tub, and the water level was adjusted to a final depth of 3 cm. Herbicide application timing was targeted at the 2.0 to 2.5 leaf stage and the plants were treated with test chemicals formulated in a non-phytotoxic solvent. Treated plants and controls were maintained in a greenhouse for 14 days, after which time all species were compared to controls and visually evaluated. Plant response ratings are summarized in Tables G1 through G3, and are based on a scale of 0 to 100 where 0 is no effect and 100 is complete control. A dash (-) response means no test result.

[2] = system: barnyardgrass (ECHCG, Echinochloa crus-galli); experiment: Test G paddy, alone and in combination: barnyardgrass; conditions: evaluated after 14 days
Experimental: as §1

[3] = system: smallflower umbrella sedge (CYPDI, Cyperus difformis); experiment: Test G paddy, alone and in combination: smallflower umbrella sedge; conditions: evaluated after 14 days
Experimental: as §1

[4] = system: ducksalad (HETLI, Heteranthera limosa); experiment: Test G paddy, alone and in combination: ducksalad; conditions: evaluated after 14 days
Experimental: as §1

[5] = system: wheat (TRZAW, Triticum aestivum); experiment: Test H post-emergence, alone and in combination: wheat
Text: (§2) Seeds of plant species selected from wheat (TRZAW, Triticum aestivum), barley (HORBW, Hordeum vulgare), Kochia (KCHSC, Kochia caoparia) blackgrass (ALOMY, Alopecurus myosuroides), canarygrass (PHAMI, Phalaris minor), Italian ryegrass (LOLMU, Lolium multiflorum) common lambsquarter (CHEAL, Chenopodium album), pigweed (AMARE, Amaranthus retroflexus), Common Chickweed (STEME, Stellaria media), Russian thistle (SASKR, Salsola iberica), Wild Buckwheat (POLCO, Polygonum convolvulus), Catchweed Bedstraw (GALAP, Galium aparine), Mustard (SINAR, Sinapisar arvensis), Henbit Deadnettle (LAMAM, Lamium amplexicaule), Wild Radish (RAPRA, Raphanus raphanistrum), Field Poppy (PAPRH, Papaver rhoeas), Field Violet (VIOAR, Viola arvennsis), Scentless Chamomile (MATIN Matricaria inodora) were planted into soil and treated post-emergence with test chemicals formulated in a non-phytotoxic solvent mixture. Plants were grown in a greenhouse using supplemental lighting to maintain a photoperiod of approximately 14 hours; daytime and nighttime temperatures were approximately 23°-29° and 16°-19° Celsius, respectively. Balanced fertilizer was applied through the watering system. Treated plants and controls were maintained in a greenhouse for 20 days, after which time all species were compared to controls and visually evaluated. Plant response ratings were calculated as the mean of three replicates (unless otherwise indicated), are summarized in Table G, and are based on a scale of 0 to 100 where 0 is no effect and 100 is complete control. A dash (-) response means no test result.

[6] = system: barley (HORBW, Hordeum vulgare); experiment: Test H post-emergence, alone and in combination: barley
Text: as §2

[7] = system: Kochia (KCHSC, Kochia caoparia); experiment: Test H post-emergence, alone and in combination: Kochia
Text: as §2

[8] = system: blackgrass (ALOMY, Alopecurus myosuroides); experiment: Test H post-emergence, alone and in combination: blackgrass
Text: as §2

[9] = system: canarygrass (PHAMI, Phalaris minor); experiment: Test H post-emergence, alone and in combination: canarygrass
Text: as §2

[10] = system: Italian ryegrass (LOLMU, Lolium multiflorum); experiment: Test H post-emergence, alone and in combination: Italian ryegrass
Text: as §2

[11] = system: common lambsquarter (CHEAL, Chenopodium album); experiment: Test H post-emergence, alone and in combination: common lambsquarter
Text: as §2

[12] = system: pigweed (AMARE, Amaranthus retroflexus); experiment: Test H post-emergence, alone and in combination: pigweed
Text: as §2

[13] = system: Common Chickweed (STEME, Stellaria media); experiment: Test H post-emergence, alone and in combination: Common Chickweed
Text: as §2

[14] = system: Russian thistle (SASKR, Salsola iberica); experiment: Test H post-emergence, alone and in combination: Russian thistle
Text: as §2

[15] = system: Wild Buckwheat (POLCO, Polygonum convolvulus); experiment: Test H post-emergence, alone and in combination: Wild Buckwheat
Text: as §2

[16] = system: Catchweed Bedstraw (GALAP, Galium aparine); experiment: Test H post-emergence, alone and in combination: Catchweed Bedstraw
Text: as §2

[17] = system: Mustard (SINAR, Sinapisar arvensis); experiment: Test H post-emergence, alone and in combination: Mustard
Text: as §2

[18] = system: Henbit Deadnettle (LAMAM, Lamium amplexicaule); experiment: Test H post-emergence, alone and in combination: Henbit Deadnettle
Text: as §2

[19] = system: Wild Radish (RAPRA, Raphanus raphanistrum); experiment: Test H post-emergence, alone and in combination: Wild Radish
Text: as §2

[20] = system: Field Poppy (PAPRH, Papaver rhoeas); experiment: Test H post-emergence, alone and in combination: Field Poppy
Text: as §2

[21] = system: Field Violet (VIOAR, Viola arvennsis); experiment: Test H post-emergence, alone and in combination: Field Violet
Text: as §2

[22] = system: Scentless Chamomile (MATIN Matricaria inodora); experiment: Test H post-emergence, alone and in combination: Scentless Chamomile
Text: as §2

COC(=O)c1ccccc1CS(=O)(=O)NC(=O)Nc1nc(OC)cc(OC)n1 [b2a, bensulfuron-methyl]
ORYSP plant response rating (scale of 0 to 100) ([1]; Rate 16 g/ha): 0
ORYSP plant response rating (scale of 0 to 100) ([1]; Rate 31 g/ha): 0
ORYSP plant response rating (scale of 0 to 100) ([1]; Rate 32 g/ha): 0
ORYSP plant response rating (scale of 0 to 100) ([1]; Rate 62 g/ha): 0
ORYSP plant response rating (scale of 0 to 100) ([1]; Rate 64 g/ha): 0
ORYSP plant response rating (scale of 0 to 100) ([1]; Rate 125 g/ha): 0
ECHCG plant response rating (scale of 0 to 100) ([2]; Rate 16 g/ha): 60
ECHCG plant response rating (scale of 0 to 100) ([2]; Rate 31 g/ha): 68
ECHCG plant response rating (scale of 0 to 100) ([2]; Rate 32 g/ha): 60
ECHCG plant response rating (scale of 0 to 100) ([2]; Rate 62 g/ha): 75
ECHCG plant response rating (scale of 0 to 100) ([2]; Rate 64 g/ha): 68
ECHCG plant response rating (scale of 0 to 100) ([2]; Rate 125 g/ha): 75
CYPDI plant response rating (scale of 0 to 100) ([3]; Rate 16 g/ha): 90
CYPDI plant response rating (scale of 0 to 100) ([3]; Rate 31 g/ha): 90
CYPDI plant response rating (scale of 0 to 100) ([3]; Rate 32 g/ha): 90
CYPDI plant response rating (scale of 0 to 100) ([3]; Rate 62 g/ha): 93
CYPDI plant response rating (scale of 0 to 100) ([3]; Rate 64 g/ha): 90
CYPDI plant response rating (scale of 0 to 100) ([3]; Rate 125 g/ha): 93
HETLI plant response rating (scale of 0 to 100) ([4]; Rate 16 g/ha): 90
HETLI plant response rating (scale of 0 to 100) ([4]; Rate 31 g/ha): 95
HETLI plant response rating (scale of 0 to 100) ([4]; Rate 32 g/ha): 90
HETLI plant response rating (scale of 0 to 100) ([4]; Rate 62 g/ha): 98
HETLI plant response rating (scale of 0 to 100) ([4]; Rate 64 g/ha): 95
HETLI plant response rating (scale of 0 to 100) ([4]; Rate 125 g/ha): 98

COC(=O)c1ccc(C(F)(F)F)nc1S(=O)(=O)NC(=O)Nc1nc(OC)cc(OC)n1 [b2b, flupyrsulfuron-methyl]
TRZAW plant response ([5]; Rate 8): 0
TRZAW plant response ([5]; Rate 16): 5
TRZAW plant response ([5]; Rate 31): 5
TRZAW plant response ([5]; Rate 62): 25
HORBW plant response ([6]; Rate 8): 20
HORBW plant response ([6]; Rate 16): 30
HORBW plant response ([6]; Rate 31): 60
HORBW plant response ([6]; Rate 62): 70
KCHSC plant response ([7]; Rate 8): 75
KCHSC plant response ([7]; Rate 16): 100
KCHSC plant response ([7]; Rate 31): 80
KCHSC plant response ([7]; Rate 62): 95
ALOMY plant response ([8]; Rate 8): 100
ALOMY plant response ([8]; Rate 16): 100
ALOMY plant response ([8]; Rate 31): 100
ALOMY plant response ([8]; Rate 62): 100
PHAMI plant response ([9]; Rate 8): 40
PHAMI plant response ([9]; Rate 16): 55
PHAMI plant response ([9]; Rate 31): 85
PHAMI plant response ([9]; Rate 62): 90
LOLMU plant response ([10]; Rate 8): 60
LOLMU plant response ([10]; Rate 16): 60
LOLMU plant response ([10]; Rate 31): 65
LOLMU plant response ([10]; Rate 62): 80
CHEAL plant response ([11]; Rate 8): 60
CHEAL plant response ([11]; Rate 16): 85
CHEAL plant response ([11]; Rate 31): 75
CHEAL plant response ([11]; Rate 62): 80
AMARI plant response ([12]; Rate 8): 100
AMARI plant response ([12]; Rate 16): 100
AMARI plant response ([12]; Rate 31): 100
AMARI plant response ([12]; Rate 62): 100
STEME plant response ([13]; Rate 8): 90
STEME plant response ([13]; Rate 16): 100
STEME plant response ([13]; Rate 31): 100
STEME plant response ([13]; Rate 62): 100
SASKR plant response ([14]; Rate 8): 50
SASKR plant response ([14]; Rate 16): 50
SASKR plant response ([14]; Rate 31): 50
SASKR plant response ([14]; Rate 62): 60
POLCO plant response ([15]; Rate 8): 100
POLCO plant response ([15]; Rate 16): 85
POLCO plant response ([15]; Rate 31): 100
POLCO plant response ([15]; Rate 62): 100
GALAP plant response ([16]; Rate 8): 90
GALAP plant response ([16]; Rate 16): 95
GALAP plant response ([16]; Rate 31): 90
GALAP plant response ([16]; Rate 62): 100
SINAR plant response ([17]; Rate 8): 100
SINAR plant response ([17]; Rate 16): 95
SINAR plant response ([17]; Rate 31): 100
SINAR plant response ([17]; Rate 62): 100
LAMAM plant response ([18]; Rate 8): 90
LAMAM plant response ([18]; Rate 16): 95
LAMAM plant response ([18]; Rate 31): 95
LAMAM plant response ([18]; Rate 62): 90
RAPRA plant response ([19]; Rate 8): 100
RAPRA plant response ([19]; Rate 16): 100
RAPRA plant response ([19]; Rate 31): 100
RAPRA plant response ([19]; Rate 62): 100
PAPRH plant response ([20]; Rate 8): 100
PAPRH plant response ([20]; Rate 16): 90
PAPRH plant response ([20]; Rate 31): 100
PAPRH plant response ([20]; Rate 62): 95
VIOAR plant response ([21]; Rate 8): 50
VIOAR plant response ([21]; Rate 16): 75
VIOAR plant response ([21]; Rate 31): 70
VIOAR plant response ([21]; Rate 62): 95
MATIN plant response ([22]; Rate 8): 90
MATIN plant response ([22]; Rate 16): 95
MATIN plant response ([22]; Rate 31): 100
MATIN plant response ([22]; Rate 62): 95
